Data set [1] concerns the target T1, XIAP-Caspase-9 in HEK293-XIAP-Caspase-9 cells (Homo sapiens, UniProt P98170).
T1 construct: FLAG; expressed in transfected cells
Description: HEK293-XIAP-Caspase-9 immunoprecipitation (IP) MSD assay. To be noted: compound 2 h at 37° C.; read-out: HEK293-X-C9 IP. It counts as cell-based. The method, then: Stable HEK293-XIAP-Caspase-9 cells were plated out into 96-well plates [200 μl/well at 1×10^6 cells/mL in cultured complete medium (DMEM+10% FBS+0.5 mg/mL Geneticin (Invitrogen)] and left overnight at 37° C. to recover. Compounds were added to duplicate wells in 0.1% DMSO for 2 h at 37° C. Cells were lysed in 50 μl 1×MSD lysis buffer (1% Triton X-100 in 20 mM Tris·Cl (pH 7.6), 150 mM NaCl including protease inhibitors) for 20 min rocking at room temperature. Streptavidin high bind MSD plate (L15SB-2) were coated with biotinylated anti-FLAG M2 antibody (Sigma F9291) at 25 μl/well with a 5 μg/mL dilution of antibody in PBS for 1 h, shaking; followed by blocking for 1 h with 150 μl 3% BSA/TBST. Cell lysate (25 μl) was added to the 96-well anti-FLAG coated MSD plate and placed on shaker for 4 h at room temperature. […] Plates were washed 4 times with 150 μl TBST, and 150 μl/well 1×MSD read buffer (R92TC-2) added before reading each plate.
EC50 values were determined from dose-response plots using nonlinear least-squares analysis.

Another data set addresses T2, hERG ion channel (Homo sapiens, UniProt Q12809).
T2 construct: expressed in transfected cells; host or cells: CHO K1
Description: Population Patch Clamp (PPC) hERG assay in CHO K1 cells. It counts as cell-based. To be noted: for IC50: CHO K1 cells stably transfected with hERG. On the procedure: Inhibition of the hERG channel was measured by automated patch clamp assay in CHO K1 cells, stably transfected with the hERG ion channel. PPC measurements were performed using an IonWorks Quattro instrument (Molecular Devices Corporation, Union City, CA) using a 384 well PatchPlate (Molecular Devices Corporation) with 64 apertures per well. Each concentration of test compound was tested in duplicate wells. Amphotericin B was used to obtain electrical access to the cell interior at a final concentration of 200 μg/mL. Human ether-à-gogo related gene (hERG) currents were measured with a prepulse to +40 mV (2 s) from the holding potential of −80 mV, followed by a step to −50 mV (2 s) to elicit the deactivating tail currents, before returning to the holding potential for 1s. Compounds were incubated for 600s between the pre- and post-compound reads. The external recording solution used was 130 mM Na Gluconate, 20 mM NaCl, 4 mM KCl, 1 mM MgCl2, 1.8 mM CaCl2, 10 mM Hepes, 5 mM Glucose, pH to 7.3 with NaOH. All data were filtered for seal quality, seal drop, and current amplitude. The maximum current amplitude of the 3rd pulse tail current was calculated before (Pre) and after (Post) compound addition and the amount of block assessed by dividing the Post-compound current amplitude by the Pre-compound current amplitude.

“And” between values parts separate entries of the source, which are not always exact repeats. Equal values may be shown once. Where a name gives a salt, the structure may show the parent alone.

These results are taken from patent US12202828B2, “Bicyclic heterocycle compounds and their uses in therapy” (ASTEX THERAPEUTICS LIMITED, priority 2013, dated 2025).

T2 sequence (Q12809 whole entry): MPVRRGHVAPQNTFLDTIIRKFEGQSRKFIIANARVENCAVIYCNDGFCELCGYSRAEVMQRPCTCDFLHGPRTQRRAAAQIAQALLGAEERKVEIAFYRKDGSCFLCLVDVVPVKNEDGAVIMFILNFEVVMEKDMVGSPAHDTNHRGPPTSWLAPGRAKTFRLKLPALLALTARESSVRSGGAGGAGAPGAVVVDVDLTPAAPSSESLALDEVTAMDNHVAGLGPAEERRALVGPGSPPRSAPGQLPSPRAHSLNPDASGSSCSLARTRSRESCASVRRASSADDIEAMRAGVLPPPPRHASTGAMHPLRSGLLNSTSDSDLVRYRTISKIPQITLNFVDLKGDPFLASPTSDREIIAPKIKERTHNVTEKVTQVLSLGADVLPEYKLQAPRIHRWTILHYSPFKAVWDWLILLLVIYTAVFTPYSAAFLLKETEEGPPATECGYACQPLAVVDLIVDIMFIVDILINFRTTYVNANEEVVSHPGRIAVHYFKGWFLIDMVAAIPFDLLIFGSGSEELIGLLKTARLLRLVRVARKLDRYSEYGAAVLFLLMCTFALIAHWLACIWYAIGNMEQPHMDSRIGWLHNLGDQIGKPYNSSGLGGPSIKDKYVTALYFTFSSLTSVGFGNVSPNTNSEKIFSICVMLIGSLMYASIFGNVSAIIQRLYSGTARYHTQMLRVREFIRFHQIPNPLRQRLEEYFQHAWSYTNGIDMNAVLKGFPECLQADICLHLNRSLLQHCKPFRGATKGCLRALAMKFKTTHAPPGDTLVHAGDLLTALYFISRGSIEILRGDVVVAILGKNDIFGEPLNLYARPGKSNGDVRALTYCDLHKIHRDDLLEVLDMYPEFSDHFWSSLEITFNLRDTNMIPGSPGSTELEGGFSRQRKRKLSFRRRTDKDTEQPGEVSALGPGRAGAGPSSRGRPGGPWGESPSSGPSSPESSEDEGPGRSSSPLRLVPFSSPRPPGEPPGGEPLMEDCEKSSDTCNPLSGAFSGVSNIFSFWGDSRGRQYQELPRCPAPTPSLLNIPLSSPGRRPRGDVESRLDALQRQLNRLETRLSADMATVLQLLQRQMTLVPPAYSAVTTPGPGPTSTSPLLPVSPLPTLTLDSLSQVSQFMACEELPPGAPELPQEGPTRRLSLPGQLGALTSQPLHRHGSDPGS
T1 sequence (P98170 whole entry): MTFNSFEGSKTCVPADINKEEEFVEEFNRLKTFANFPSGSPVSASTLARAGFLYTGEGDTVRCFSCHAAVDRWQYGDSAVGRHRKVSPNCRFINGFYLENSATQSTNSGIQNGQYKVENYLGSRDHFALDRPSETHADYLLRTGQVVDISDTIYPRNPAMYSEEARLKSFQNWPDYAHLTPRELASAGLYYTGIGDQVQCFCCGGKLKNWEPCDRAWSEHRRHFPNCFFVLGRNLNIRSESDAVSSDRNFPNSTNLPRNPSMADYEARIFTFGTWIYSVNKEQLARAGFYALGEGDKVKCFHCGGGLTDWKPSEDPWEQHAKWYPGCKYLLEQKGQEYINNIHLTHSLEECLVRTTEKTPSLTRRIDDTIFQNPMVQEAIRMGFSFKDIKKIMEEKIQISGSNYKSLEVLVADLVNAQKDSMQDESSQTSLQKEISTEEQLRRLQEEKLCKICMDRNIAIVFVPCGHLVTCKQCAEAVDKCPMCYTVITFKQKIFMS

For the compound `COC(CO)c1nc2c(cc1Cc1ccc(F)cc1)N(C(=O)CN1C[C@@H](C)NC[C@@H]1CN1CCOC[C@H]1C)CC2(C)C` (single isomer, unassigned) [Example 29, 1-{6-[(4-Fluorophenyl)methyl]-5-((R or S)-2-hydroxy-1-methoxyethyl)-3,3-dimethyl-1H,2H,3H-pyrrolo[3,2-b]pyridin-1-yl}-2-[(2R,5R)-5-methyl-2-{[(3R)-3-methylmorpholin-4-yl]methyl}piperazin-1-yl] ethan-1-one], in data set [1], the EC50 was found to be 13 nM. Further, the “hERG PPC (PI)” value at hERG ion channel (@ 500 μM) is recorded as 53% @ 500.
Regarding `COC(CO)c1nc2c(cc1Cc1ccc(F)cc1)N(C(=O)CN1C[C@@H](C)NC[C@@H]1CN1CCOC[C@H]1C)CC2(C)C` (single isomer, unassigned) [Example 27, 1-{6-[(4-Fluorophenyl)methyl]-5-((R or S)-2-hydroxy-1-methoxyethyl)-3,3-dimethyl-1H,2H,3H-pyrrolo[3,2-b]pyridin-1-yl}-2-[(2R,5R)-5-methyl-2-{[(3R)-3-methylmorpholin-4-yl]methyl}piperazin-1-yl] ethan-1-one trihydrochloride], the EC50 in data set [1] was 6 nM and 9.9 nM. Further, the “hERG PPC (PI)” value at hERG ion channel (@ 1000 μM) is 55% @ 1000.
`COCC(O)c1nc2c(cc1Cc1ccc(F)cc1)N(C(=O)CN1C[C@@H](C)NC[C@@H]1CN1CCOC[C@H]1C)CC2(C)C` (single isomer, unassigned) [Example 28, 1-{6-[(4-Fluorophenyl)methyl]-5-((R or S)-1-hydroxy-2-methoxyethyl)-3,3-dimethyl-1H,2H,3H-pyrrolo[3,2-b]pyridin-1-yl}-2-[(2R,5R)-5-methyl-2-{[(3R)-3-methylmorpholin-4-yl]methyl}piperazin-1-yl] ethan-1-one trihydrochloride]: the EC50 in data set [1] is 4.4 nM. In addition, the “hERG PPC (PI)” value on hERG ion channel (@ 125 μM) was found to be 45% @ 125.
As to `C[C@@H]1CN(CC(=O)N2CC(C)(C)c3nc(C(O)CO)c(Cc4ccc(F)cc4)cc32)[C@@H](CN2CCOC[C@H]2C)CN1` (single isomer, unassigned) [Example 14, 1-[5-((R or S)-1,2-Dihydroxyethyl)-6-[(4-fluorophenyl)methyl]-3,3-dimethyl-1H,2H,3H-pyrrolo [3,2-b]pyridin-1-yl]-2-[(2R,5R)-5-methyl-2-{[(3R)-3-methylmorpholin-4-yl]methyl}piperazin-1-yl] ethan-1-one dihydrochloride], the EC50 in data set [1] was 13 nM. For the same compound, the “hERG PPC (PI)” value on hERG ion channel (@ 300 μM, dihydrochloride) came out at 58% @ 300.
Turning to `C[C@@H]1CN(CC(=O)N2CC(C)(C)c3nc(CO)c(Cc4ccccc4F)cc32)[C@@H](CN2CCOC[C@H]2C)CN1` [Example 4, 1-{6-[(2-Fluorophenyl)methyl]-5-(hydroxymethyl)-3,3-dimethyl-1H,2H,3H-pyrrolo[3,2-b]pyridin-1-yl}-2-[(2R,5R)-5-methyl-2-{[(3R)-3-methylmorpholin-4-yl]methyl}piperazin-1-yl] ethan-1-one dihydrochloride], in data set [1], the EC50 came out at 2.6 nM. Moreover, the “hERG PPC (PI)” value on hERG ion channel (@ 30 μM) was 47% @ 30.
For the compound `COCC(O)c1nc2c(cc1Cc1ccc(F)cc1)N(C(=O)CN1C[C@@H](C)NC[C@@H]1CN1CCOC[C@H]1C)CC2(C)C` (single isomer, unassigned) [Example 26, 1-{6-[(4-Fluorophenyl)methyl]-5-((R or S)-1-hydroxy-2-methoxyethyl)-3,3-dimethyl-1H,2H,3H-pyrrolo[3,2-b]pyridin-1-yl}-2-[(2R,5R)-5-methyl-2-{[(3R)-3-methylmorpholin-4-yl]methyl}piperazin-1-yl] ethan-1-one trihydrochloride], the EC50 in data set [1] turned out to be 12 nM. For the same compound, on hERG ion channel (@ 31.3 μM), the “hERG PPC (PI)” value was determined as 41% @ 31.3.
As for `CCCCc1cc2c([nH]c1=O)C(C)(C)CN2C(=O)CN1C[C@@H](C)NC[C@@H]1CN1[C@H](C)COC[C@H]1C` [Example 32, 6-Butyl-1-{2-[(2R,5R)-2-{[(3R,5R)-3,5-dimethylmorpholin-4-yl]methyl}-5-methylpiperazin-1-yl]acetyl}-3,3-dimethyl-1H,2H,3H,4H,5H-pyrrolo[3,2-b]pyridin-5-one dihydrochloride], the EC50 in data set [1] came to 1.5 nM. Further, the “hERG PPC (PI)” value on hERG ion channel (@ 500 μM) was 55% @ 500.
Usually IC50 stands for the point on the concentration scale where inhibition reaches its midpoint. A low value points to inhibition by little substance. As for `CCCCc1cc2c(nc1CO)C(C)(C)CN2C(=O)CN1C[C@@H](C)NC[C@@H]1CN1[C@H](C)COC[C@H]1C` [Example 34, 1-[6-Butyl-5-(hydroxymethyl)-3,3-dimethyl-1H,2H,3H-pyrrolo[3,2-b]pyridin-1-yl]-2-[(2R,5R)-2-{[(3R,5R)-3,5-dimethylmorpholin-4-yl]methyl}-5-methylpiperazin-1-yl] ethan-1-one dihydrochloride], in data set [1], the EC50 turned out to be 3.8 nM. This compound yielded an IC50 on hERG ion channel of 55000 nM.
For the compound `C[C@@H]1CN(CC(=O)N2CC(C)(C)c3[nH]c(=O)c(Cc4ccc(F)cc4)cc32)[C@@H](CN2CCOC[C@H]2C)CN1` [Example 5, 6-[(4-Fluorophenyl)methyl]-3,3-dimethyl-1-{2-[(2R,5R)-5-methyl-2-{[(3R)-3-methylmorpholin-4-yl]methyl}piperazin-1-yl]acetyl}-1H,2H,3H,4H,5H-pyrrolo[3,2-b]pyridin-5-one dihydrochloride], the EC50 in data set [1] worked out at 5.3 nM. Also, the “hERG PPC (PI)” value on hERG ion channel (@ 300 μM) was 42% @ 300.
In the case of `C[C@@H]1CN(CC(=O)N2CC(C)(C)c3nc(C(O)CO)c(Cc4ccc(F)cc4)cc32)[C@@H](CN2[C@H](C)COC[C@H]2C)CN1` (single isomer, unassigned) [Example 21, 1-[5-((R or S)-1,2-Dihydroxyethyl)-6-[(4-fluorophenyl)methyl]-3,3-dimethyl-1H,2H,3H-pyrrolo[3,2-b]pyridin-1-yl]-2-[(2R,5R)-2-{[(3R,5R)-3,5-dimethylmorpholin-4-yl]methyl}-5-methylpiperazin-1-yl] ethan-1-one dihydrochloride], in data set [1], the EC50 was determined as 2.1 nM. On hERG ion channel (@ 100 μM), the “hERG PPC (PI)” value was 35% @ 100.
For the compound `CCCCc1cc2c(n(N)c1=O)C(C)(C)CN2C(=O)CN1C[C@@H](C)NC[C@@H]1CN1[C@H](C)COC[C@H]1C` [Example 30, 4-Amino-6-butyl-1-{2-[(2R,5R)-2-{[(3R,5R)-3,5-dimethylmorpholin-4-yl]methyl}-5-methylpiperazin-1-yl]acetyl}-3,3-dimethyl-1H,2H,3H,4H,5H-pyrrolo[3,2-b]pyridin-5-one dihydrochloride], the EC50 in data set [1] is 1.2 nM and 1.4 nM. On hERG ion channel, this compound showed an IC50 of 230000 nM.
On to `C[C@@H]1CN(CC(=O)N2CC(C)(C)c3cc(=O)n(Cc4ccc(F)cc4F)cc32)[C@@H](CN2[C@H](C)COC[C@H]2C)CN1` [Example 20, 6-[(2,4-Difluorophenyl)methyl]-1-{2-[(2R,5R)-2-{[(3R,5R)-3,5-dimethylmorpholin-4-yl]methyl}-5-methylpiperazin-1-yl]acetyl}-3,3-dimethyl-1H,2H,3H,5H,6H-pyrrolo[2,3-c]pyridin-5-one dihydrochloride], for which, in data set [1], the EC50 came out at 6.3 nM. Further, on hERG ion channel (@ 100 μM), the “hERG PPC (PI)” value was 44% @ 100.
On the same counts, the results for `C[C@@H]1CN(CC(=O)N2CC(C)(C)c3c2cc(Cc2ccc(F)cc2F)c(=O)n3C)[C@@H](CN2[C@H](C)COC[C@H]2C)CN1` [Example 12, 6-[(2,4-Difluorophenyl)methyl]-1-{2-[(2R,5R)-2-{[(3R,5R)-3,5-dimethylmorpholin-4-yl]methyl}-5-methylpiperazin-1-yl]acetyl}-3,3,4-trimethyl-1H,2H,3H,4H,5H-pyrrolo [3,2-b]pyridin-5-one dihydrochloride] are 0.69 nM and 41% @ 100.
With `C[C@@H]1CN(CC(=O)N2CC(C)(C)c3c2cc(Cc2ccc(F)cc2)c(=O)n3C)[C@@H](CN2CCOC[C@H]2C)CN1` [Example 6, 6-[(4-Fluorophenyl)methyl]-3,3,4-trimethyl-1-{2-[(2R,5R)-5-methyl-2-{[(3R)-3-methylmorpholin-4-yl]methyl}piperazin-1-yl]acetyl}-1H,2H,3H,4H,5H-pyrrolo[3,2-b]pyridin-5-one dihydrochloride], in data set [1], the EC50 came out at 2 nM. Moreover, the “hERG PPC (PI)” value at hERG ion channel (@ 250 μM) came to 56% @ 250.
For the compound `C[C@@H]1CN(CC(=O)N2CC(C)(C)c3c2cc(Cc2ccc(F)cc2F)c(=O)n3C)[C@@H](CN2C[C@H](C)OC[C@H]2C)CN1` [Example 25, 6-[(2,4-Difluorophenyl)methyl]-1-{2-[(2R,5R)-2-{[(2S,5R)-2,5-dimethylmorpholin-4-yl]methyl}-5-methylpiperazin-1-yl]acetyl}-3,3,4-trimethyl-1H,2H,3H,4H,5H-pyrrolo[3,2-b]pyridin-5-one dihydrochloride], in data set [1], the EC50 came out at 2.7 nM.
